Laboratory results from patent US8748575B2, “Therapeutic peptides” (Combimab, Inc., priority 2010, dated 2014).
Residues, ends and D or L forms follow the SMILES beside them.

What was measured:
GC-C = target: T1, GC-C (Mus musculus, UniProt Q3UWA6); test: Intestinal membrane 125I-STa competitive radioligand binding assay; design: key to I-125 binding assay: 1+ (lowest activity/potency); ++: Results are graded from 1+ (lowest activity/potency) to 5+ (highest activity/potency); +++: Results are graded from 1+ (lowest activity/potency) to 5+ (highest activity/potency); ++++: Results are graded from 1+ (lowest activity/potency) to 5+ (highest activity/potency); +++++: 5+ (highest activity/potency); settings: graded activity/potency, mouse intestinal membranes
T1 construct: freshly prepared mouse intestine membranes; from tissue; host or cells: mouse intestine (membrane preparation)
T1 sequence (Q3UWA6 20-1072): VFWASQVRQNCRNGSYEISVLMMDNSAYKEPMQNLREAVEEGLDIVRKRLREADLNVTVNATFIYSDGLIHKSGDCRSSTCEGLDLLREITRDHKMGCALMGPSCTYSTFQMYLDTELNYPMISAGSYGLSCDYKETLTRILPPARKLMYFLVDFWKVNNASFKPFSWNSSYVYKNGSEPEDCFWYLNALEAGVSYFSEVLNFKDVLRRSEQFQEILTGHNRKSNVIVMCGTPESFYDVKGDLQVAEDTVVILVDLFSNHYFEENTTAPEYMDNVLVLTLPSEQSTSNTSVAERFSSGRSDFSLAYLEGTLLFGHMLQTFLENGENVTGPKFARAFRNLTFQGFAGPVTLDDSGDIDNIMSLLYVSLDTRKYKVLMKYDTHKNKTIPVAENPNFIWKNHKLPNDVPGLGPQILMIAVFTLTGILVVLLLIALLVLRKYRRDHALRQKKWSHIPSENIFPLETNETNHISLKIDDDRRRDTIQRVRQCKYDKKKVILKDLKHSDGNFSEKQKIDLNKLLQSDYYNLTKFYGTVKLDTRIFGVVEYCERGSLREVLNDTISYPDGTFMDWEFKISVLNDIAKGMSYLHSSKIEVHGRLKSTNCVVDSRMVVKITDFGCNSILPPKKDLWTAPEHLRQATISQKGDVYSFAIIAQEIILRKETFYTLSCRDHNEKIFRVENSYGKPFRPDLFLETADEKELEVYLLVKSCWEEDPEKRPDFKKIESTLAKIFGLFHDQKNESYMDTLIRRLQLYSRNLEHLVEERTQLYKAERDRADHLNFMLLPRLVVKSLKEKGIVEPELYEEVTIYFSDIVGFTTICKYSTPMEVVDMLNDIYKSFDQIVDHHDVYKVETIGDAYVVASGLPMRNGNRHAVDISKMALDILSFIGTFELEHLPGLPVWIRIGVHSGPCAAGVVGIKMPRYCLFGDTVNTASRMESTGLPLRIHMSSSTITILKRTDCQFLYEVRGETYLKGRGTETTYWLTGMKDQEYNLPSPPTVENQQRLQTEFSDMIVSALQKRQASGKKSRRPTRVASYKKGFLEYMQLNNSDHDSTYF
Protocol: Intestinal membrane 1-125 labeled radioligand binding assay. The intestinal membrane radioligand binding assay was used to assess whether a novel compound could displace ^125I-STa from GC-C (Crane et al., 1992). Each analog was analyzed for its ability to displace ^125I-STa from GC-C in a competitive binding assay. ^125I-ST Displaced” was determined by co-incubating STa analogs (10 μM) with 50,000 DPM of ^125I-STa (1-18) in the presence of mouse intestinal membranes. The displacement (n=3) for each analog was determined relative to a vehicle control.
Membranes were prepared from freshly harvested mouse intestines by first washing away the blood or feces with ice-cold Dulbecco's PBS. Washed organs were minced with a single-edged razor blade, followed by homogenization on ice in 50 mM Tris, pH 7.6, containing 1 mM EDTA, 1 mM PMSF, 1 mM DTT. Debris was then removed by a 15 minute centrifugation at 3,000×G and 4° C. The supernatant is then passed through successively smaller needles (18 gauge through 25 gauge) and frozen at −70° C. until used as a tissue homogenate. If intended for use as isolated membranes, the above homogenate was centrifuged (100,000×G) at 4° C. for 1 hour while fresh and the pellet was re-suspended in homogenization buffer.
The assay was performed in 96 well filter plates which were pre-incubated overnight with 200 μl of 0.3% polyethylenimine (w/v) and washed three times by aspiration with 300 μl of Wash Buffer (150 mM NaCl, 20 mM Sodium Phosphate pH=7.2, 1 mM EDTA) immediately before use. Into each well of was added 50 μl of 3× Binding buffer (150 mM Tris-HCl pH=7.6, 1.98 mM Cysteamine, 0.3% Bacitracin, 1350 mM NaCl, 3 mM EDTA), 40 μl of double-distilled water, 10 μl of either double-distilled water or cold ligand (50 uM STa (5-18) in double-distilled water), 10 μl of increasing concentrations (125 DPM/ul to 50,000 DPM/ul) of radiolabeled 125I -STa (1-18) and finally 40 μl (approximately 2 mg protein/ml) of freshly prepared mouse intestine membranes. The plates were then incubated with mixing at 37 C for two hr, washed successively with six 200 μl aliquots of Wash Buffer and aspirated to dryness. The filter bottoms of each well were punched into individual borosilicate tubes and bound radioactivity determined in a gamma counter. Protein content was determined on an aliquot of the mouse intestine membranes used in the Biorad Protein Assay.

T84 cells (GC-C) = test: Intact T84 cell cGMP accumulation assay; type: cell-based, Human; design: key to CGMP accumulation assay: 1+ (lowest activity/potency); ++: Results are graded from 1+ (lowest activity/potency) to 5+ (highest activity/potency); +++: Results are graded from 1+ (lowest activity/potency) to 5+ (highest activity/potency); ++++: Results are graded from 1+ (lowest activity/potency) to 5+ (highest activity/potency); +++++: 5+ (highest activity/potency); settings: for activity in the cGMP accumulation assay: FIG. 22, compared to STa peptide; for CGMP accumulation assay: graded activity/potency, T84 cells
Protocol: The intact T84 cell assay was used to detect the accumulation of cGMP, the product of agonism, upon interaction with a compound (Visweswariah et al., 1992). Human colorectal adenocarcinoma T84 cells were grown to confluence in a 24 well plate using DMEM/F12 medium supplemented with 10% FBS. The media was aspirated from each well and the cells were washed three times with Dulbecco's PBS (1×, no Ca2+ or Mg2+). The cells were then incubated for 30 minutes at 37° C. with 1 mM […] (IBMX) in Optimem medium (no FBS), either with or without potential antagonists. After incubation under these conditions, a 10× concentrated stock of a known GC-C agonist (e.g., STa (5-18)) in PBS was added to each well and the incubation continued for an additional 15 min at 37° C.
The reaction was stopped by the addition of 200 μL of Passive Lysis Buffer (Promega) to each well. The supernatant was removed for cGMP quantitation by RIA using ^125I-labeled cGMP 54 antibody relative to an external cGMP standard curve. The cells were scraped from the surface for protein content determination using a BioRad Protein Assay.

Compound	I-125 binding assay (GC-C)	activity in the cGMP accumulation assay (T84 cells (GC-C))	CGMP accumulation assay (T84 cells (GC-C))	activity in the cGMP accumulation assay (T84 cells (GC-C); second experiment)
C[C@@H]1NC(=O)[C@@H]2CCCN2C(=O)[C@H](CC(N)=O)NC(=O)[C@@H]2CSSC[C@H](N)C(=O)N[C@H]3CSSC[C@H](NC1=O)C(=O)N[C@@H]([C@@H](C)O)C(=O)NCC(=O)N[C@H](C(=O)N[C@@H](Cc1ccc(O)cc1)C(=O)O)CSSC[C@H](NC(=O)[C@H](Cc1ccc(O)cc1)NC(=O)[C@H](CCC(=O)O)NC3=O)C(=O)N2 [Linaclotide, H2N Cys Cys Glu Tyr Cys Cys Asn Pro Ala Cys Thr Gly Cys Tyr COOH] (HELM PEPTIDE1{C.C.E.Y.C.C.N.P.A.C.T.G.C.Y}$PEPTIDE1,PEPTIDE1,1:R3-6:R3|PEPTIDE1,PEPTIDE1,2:R3-10:R3|PEPTIDE1,PEPTIDE1,5:R3-13:R3$$$V2.0)	+++	lower than the STa peptide	+++	lower than the STa peptide
H2N Asn Thr Phe Tyr Cys Cys Glu Leu Cys Cys Asn Pro Ala Cys Ala Gly Cys Tyr COOH [STa(1-18)]	+++	–	++++	–
